Source: US7452862B2, “Conformationally-controlled biologically active macrocyclic small molecules as motilin antagonists or ghrelin agonists” (Tranzyme Pharma, Inc., priority 2003, dated 2008)

What was measured:
human motilin receptor = molecular target: T1, human motilin receptor (Homo sapiens, UniProt O43193); assay: Competitive radioligand binding assay (motilin receptor), Method B1; conditions: read-out: Binding Affinity [Ki (μM)]
T1 construct: purchased PerkinElmer 6110544; host or cells: CHO cells, stably transfected
T1 sequence (O43193 whole entry): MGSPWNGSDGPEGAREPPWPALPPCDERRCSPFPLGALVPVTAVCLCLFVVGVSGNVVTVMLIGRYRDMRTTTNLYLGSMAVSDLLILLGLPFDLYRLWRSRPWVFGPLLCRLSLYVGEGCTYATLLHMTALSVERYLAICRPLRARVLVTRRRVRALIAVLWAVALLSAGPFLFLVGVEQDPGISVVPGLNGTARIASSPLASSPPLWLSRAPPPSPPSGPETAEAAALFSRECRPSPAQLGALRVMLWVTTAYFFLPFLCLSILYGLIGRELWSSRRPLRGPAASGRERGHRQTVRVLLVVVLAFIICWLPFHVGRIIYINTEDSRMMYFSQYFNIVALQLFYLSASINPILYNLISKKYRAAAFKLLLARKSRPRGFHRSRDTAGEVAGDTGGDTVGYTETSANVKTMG
Protocol: (§1) The compounds of the present invention were evaluated for their ability to interact at the human motilin receptor and the human ghrelin receptor utilizing competitive redioligand binding assays as described in Method B1 and B2, respectively. Further characterization of the interaction can be performed utilizing the functional assays described in Methods B3 and B4 for the motilin and ghrelin receptors, respectively. All of these methods can be conducted, if so desired, in a high throughput manner to permit the simultaneous evaluation of many compounds.
Competitive Radioligand Binding Assay (Motilin Receptor)
• Membranes were prepared from CHO cells stably transfected with the human motilin receptor and utilized at a quantity of 1.5 μg/assay point. [PerkinElmer™ SignalScreen® Product #6110544, PerkinElmer, Inc. Wellesley, MA] • [^125I]-Motilin (PerkinElmer, #NEX-378); final concentration: 0.04-0.06 nM • Motilin (Bachem™, #H-4385, Bachem Bioscience Inc., King of Prussia, PA.); final concentration: 1 μM • Multiscreen® Harvest plates-GF/B (Millipore™, #MAHFB1H60, Billerica, MA) • Deep-well polypropylene titer plate (Beckman Coulter™,#267006, Fullerton, CA) • TopSeal-A™ (PerkinElmer, #6005185, Wellesley, MA) • Bottom seal (Millipore, #MATAH0P00) • MicroScint-0™(PerkinElmer,#6013611, Wellesley, MA) • Binding Buffer: 50 mM Tris-HCl (pH 7.4), 10 mM MgCl2, 1 mM EDTA, 0.1% BSA Assay Volumes: • 150 μL of membranes diluted in binding buffer • 10 μL of compound diluted in binding buffer • 10 μL of radioligand ([^125I]-Motilin) diluted in binding buffer Final Test Concentrations (N=11) for Compounds: • 10, 5, 2, 1, 0.5, 0.2, 0.1, 0.05, 0.02, 0.01, 0.005 μM. Compound Handling:
(§2) Compounds were provided frozen on dry ice at a stock concentration of 10 mM diluted in 100% DMSO and stored at −20° C. until the day of testing. On the test day, compounds were allowed to thaw at room temperature and than diluted in assay buffer according to the desired test concentrations. Under these conditions, the maximum final DMSO concentration in the assay was 0.5%.
In deep-well plates, diluted cell membranes (1.5 μg/mL) are combined with 10 μL of either binding buffer (total binding, N=5), 1 μM motilin (non-specific binding, N=3) or the appropriate concentration of test compound. The reaction is initiated by addition of 10 μl of [^125I]-motilin (final conc. 0.04-0.06 nM) to each well. Plates are sealed with TopSeal-A™, vortexed gently and incubated at room temperature for 2 hours. The reaction is arrested by filtering samples through pre-soaked (0.3% polyethyleneimine, 2 h) Multiscreen®Harvest plates using a Tomtec® Harvester (Tomtec, Hamden, CT), washed 9 times with 500 μL of cold 50 mM Tris-HCI (pH 7.4), and than plates are air-dried in a fumehood for 30 minutes. A bottom seal is applied to the plates prior to the addition of 25 μL of MicroScint-0 ® to each well. Plates are then sealed with TopSeal-A™ and counted for 30 sec per well on a TopCount® Microplate Scintillation and Luminescence Counter (PerkinElmer, Wellesley, MA) where results are expressed as counts per minute (cpm).
Data are analyzed by GrapbPad™ Prism® (GraphPad Software, San Diego, CA) using a variable slope non-linear regression analysis.
[formula] where total and non-specific binding represent the cpm obtained in the absence or presence of 1 μM motilin, respectively.

[1] = molecular target: T2, human ghrelin receptor (hGHS-R1a) (Homo sapiens, UniProt Q92847); assay: Competitive radioligand binding assay (ghrelin receptor), Method B2; conditions: read-out: Binding Affinity [Ki (μM)]
T2 construct: purchased PerkinElmer BioSignal RBHGHSM, lot#1887; host or cells: HEK-293 cells, stably transfected
T2 sequence (Q92847 whole entry): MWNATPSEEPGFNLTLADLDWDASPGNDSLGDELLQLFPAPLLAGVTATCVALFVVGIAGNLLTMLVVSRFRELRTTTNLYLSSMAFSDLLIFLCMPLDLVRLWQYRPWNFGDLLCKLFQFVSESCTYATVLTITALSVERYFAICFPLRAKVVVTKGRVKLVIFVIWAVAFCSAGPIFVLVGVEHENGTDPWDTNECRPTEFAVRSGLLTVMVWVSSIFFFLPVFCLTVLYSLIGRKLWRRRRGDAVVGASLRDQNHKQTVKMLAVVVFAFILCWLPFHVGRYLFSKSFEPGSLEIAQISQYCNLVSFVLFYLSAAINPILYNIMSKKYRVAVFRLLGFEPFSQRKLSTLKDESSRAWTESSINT
Protocol: as §1
Competitive Radioligand Binding Assay (Ghrelin Receptor)
The competitive binding assay at the human growth hormone secretagogue receptor (hGHS-R1a) was carried out analogously to assays described in the literature. (Bednarek M A et al. (2000), Structure-function studies on the new growth hormone-releasing peptide ghrelin: minimal sequence of ghrelin necessary for activation of growth hormone secretagogue receptor 1 a; J Med Chem 43:43704376. Palucki B L et al. (2001), Spiro(indoline-3,4′-piperidine) growth hormone secretagogues as ghrelin mimetics; Bioorg Med Chem Lett 11:1955-1957.)
• Membranes (GHS-R/HEK 293) were prepared from HEK-293 cells stably transfected with the human ghrelin receptor (hGHS-Rla). These membranes were provided by PerkinElmer BioSignal® (#RBHGHSM, lot#1887, PerkinlElmer, Wellesley, MA) and utilized at a quantity of 0.71 μg/assay point. • [^125I]-Ghrelin (PerkinElmer, #NEX-388); final concentration: 0.0070-0.0085 nM • Ghrelin(Bachem, #H-4864, Bachem Bioscience Inc., King of Prussia, PA); final concentration: 1 μM • Multiscreen® Harvest plates-GF/C (Millipore, #MAHFC1H60, Billerica, MA) • Deep-well polypropylene titer plate (Beckman Coulter, #267006, Fullerton, CA) • TopSeal-A™ (PerkinElmer, #6005185, Wellesley, MA) • Bottom seal (Millipore, #MATAH0P00) • MicroScint-0™ (PerkinElmer, #6013611, Wellesley, MA) • Binding Buffer: 25 mM Hepes (pH 7.4), 1 mM CaCl2, 5 mM MgCl2, 2.5 mM EDTA, 0.4% BSA Assay Volumes
Competition experiments were performed in a 300 μL filtration assay format. • 220 μL of membranes diluted in binding buffer • 40 μL of compound diluted in binding buffer • 40 μL of radioligand ([^125I]-Ghrelin) diluted in binding buffer
Final test concentrations (N=1) for compounds of the present invention: • 10, 1, 0.5, 0.2, 0.1, 0.05, 0.02, 0.01, 0.005, 0.002, 0.001 μM. Compound Handling
as §2, with “−80°” for “−20°”, “rt overnight” for “room temperature”, “then” for “than”, “maximal” for “maximum”, “0.1%.” for “0.5%.”
In deep-well plates, 220 μL of diluted cell membranes (final concentration: 0.71 μg/well) were combined with 40 μL of either binding buffer (total binding, N =5), 1 μM ghrelin (non-specific binding, N =3) or the appropriate concentration of test compound (N =2 for each test concentration). The reaction was initiated by addition of 40 μL of [^125I]-ghrelin (final conc. 0.0070-0.0085 nM) to each well. Plates were sealed with TopSeal-A™, vortexed gently and incubated at rt for 30 min. The reaction was arrested by filtering samples through Multiscreen® Harvest plates (pre-soaked in 0.5% polyethyleneimine) using a Tomtec®Harvester (Tomtec, Hamden, CT), washed 9 times with 500 μL of cold 50 mM Tris-HCl (pH 7.4, 4° C), and then plates were air-dried in a fumehood for 30 min. A bottom seal was applied to the plates prior to the addition of 25 μL of MicroScint-0™ to each well. Plates were than sealed with TopSeal-A™ and counted for 30 sec per well on a TopCount® Microplate Scintillation and Luminescence Counter (PerkinElmer, Wellesley, MA) using a count delay of 60 sec. Results were expressed as counts per minute (cpm). […]

CC(C)[C@H]1NC(=O)[C@@H](Cc2cccc(Cl)c2)NCCOc2ccccc2C[C@H](C)CNC(=O)[C@H](CC2CC2)NC1=O [compound 207]
Ki (human motilin receptor): 0.001 to 0.1 µM

CC1CNC(C2CC2)C(=O)N(C)C(C)C(=O)NC(Cc2ccc(F)cc2)C(=O)NCCCc2ccccc2O1 (stereo not drawn) [compound 244]
Ki [1]: 0.001 to 0.1 µM

CC(C)[C@H]1NC(=O)[C@@H](Cc2cccc(F)c2)NCCOc2ccccc2C[C@H](O)CNC(=O)[C@H](CC2CC2)NC1=O [compound 218]
Ki (human motilin receptor): 0.1 to 1 µM

CC(C)[C@H]1NC(=O)[C@@H](Cc2cccc(F)c2)NCCOc2ccccc2C[C@@H](O)CNC(=O)[C@H](CC2CC2)NC1=O [compound 219]
Ki (human motilin receptor): 0.1 to 1 µM

CC(C)[C@H]1NC(=O)[C@@H](Cc2cccc(F)c2)NC[C@@H](C)Oc2ccccc2CCCNC(=O)[C@H](CC2CC2)NC1=O [compound 220]
Ki (human motilin receptor): 0.1 to 1 µM

CC1CNC(=O)[C@H](CC2CC2)NC(=O)[C@@H](C(C)C)NC(=O)[C@@H](Cc2cccc(Cl)c2)NCCOc2ccccc2C1 (stereo partly drawn) [compound 209]
Ki (human motilin receptor): 0.001 to 0.1 µM

CC1COc2ccccc2CCCNC(=O)C(Cc2ccc(F)cc2)NC(=O)C(C)N(C)C(=O)C(C2CC2)N1 (stereo not drawn) [compound 241]
Ki [1]: 0.001 to 0.1 µM

CCC(C)C1NCCOc2ccccc2CC(C)CNC(=O)C(Cc2cccc(Cl)c2)NC(=O)C2(CCCC2)NC1=O (stereo not drawn) [compound 257]
Ki [1]: 0.001 to 0.1 µM

CC(C)[C@H]1NC(=O)[C@@H](Cc2cccc(C(F)(F)F)c2)NCCOc2ccccc2C[C@@H](C)CNC(=O)[C@H](CNC(=N)N)NC1=O [compound 204]
Ki (human motilin receptor): 0.001 to 0.1 µM

CCC[C@@H]1NC(=O)[C@@H](C(C)C)NC(=O)[C@@H](Cc2ccc(O)cc2)NC[C@@H](C)Oc2ccccc2CCCNC1=O [compound 227]
Ki (human motilin receptor): 0.1 to 1 µM

CCC[C@@H]1NC(=O)[C@@H](C(C)C)NC(=O)[C@@H](Cc2ccc(OC)cc2)NC(C)COc2ccccc2CCCNC1=O (stereo partly drawn) [compound 222]
Ki (human motilin receptor): 0.001 to 0.1 µM

CC(C)[C@H]1NC(=O)[C@@H](Cc2cccc(Cl)c2)NCCOc2ccccc2C[C@@H](C)CNC(=O)[C@H](CC2CC2)NC1=O [compound 211]
Ki (human motilin receptor): 0.001 to 0.1 µM

CC(C)[C@H]1NC(=O)[C@@H](Cc2cccc(Cl)c2)N[C@@H](C)COc2ccccc2CCCNC(=O)[C@H](CNC(=N)N)NC1=O [compound 203]
Ki (human motilin receptor): 0.001 to 0.1 µM

CCC(C)[C@@H]1NC[C@@H](C)Oc2ccccc2CCCNC(=O)[C@@H](Cc2ccccc2)NC(=O)[C@@H](C)N(C)C1=O (stereo partly drawn) [compound 242]
Ki [1]: 0.001 to 0.1 µM

CCC[C@@H]1NC(=O)[C@@H](C(C)C)NC(=O)[C@@H](Cc2ccc(O)cc2)NC[C@H](C)Oc2ccccc2CCCNC1=O [compound 226]
Ki (human motilin receptor): 0.1 to 1 µM

CC1COc2ccccc2CCCNC(=O)[C@H](CC2CC2)NC(=O)[C@@H](C(C)C)NC(=O)[C@@H](Cc2cccc(Cl)c2)N1 (stereo partly drawn) [compound 223]
Ki (human motilin receptor): 0.001 to 0.1 µM

CC(C)[C@H]1NC(=O)[C@@H](Cc2cccc(F)c2)N[C@H](C)COc2ccccc2CCCNC(=O)[C@H](CC2CC2)NC1=O [compound 217]
Ki (human motilin receptor): 0.1 to 1 µM

CC(C)[C@H]1NC(=O)[C@@H](Cc2cccc(Cl)c2)NCCOc2ccccc2C[C@@H](O)CNC(=O)[C@H](CC2CC2)NC1=O [compound 216]
Ki (human motilin receptor): 0.001 to 0.1 µM

CCC(C)C1NCC(C)Oc2ccccc2CCCNC(=O)C(Cc2cccc(Cl)c2)NC(=O)C2(CCCC2)NC1=O (stereo not drawn) [compound 254]
Ki [1]: 0.001 to 0.1 µM

CC(C)[C@H]1NC(=O)[C@@H](Cc2cccc(Cl)c2)NCCOc2ccccc2C[C@H](O)CNC(=O)[C@H](CC2CC2)NC1=O [compound 215]
Ki (human motilin receptor): 0.001 to 0.1 µM

CCC(C)C1NCCOc2ccccc2C(C)CCNC(=O)C(Cc2cccc(Cl)c2)NC(=O)C2(CCCC2)NC1=O (stereo not drawn) [compound 256]
Ki [1]: 0.1 to 1 µM

CC(C)[C@H]1NC(=O)[C@@H](Cc2cccc(F)c2)NCCOc2ccccc2C[C@@H](C)CNC(=O)[C@H](CC2CC2)NC1=O [compound 214]
Ki (human motilin receptor): 0.001 to 0.1 µM

CC(C)[C@H]1NC(=O)[C@@H](Cc2cccc(F)c2)N[C@@H](C)COc2ccccc2CCCNC(=O)[C@H](CC2CC2)NC1=O [compound 208]
Ki (human motilin receptor): 0.001 to 0.1 µM

CC(C)[C@H]1NC(=O)[C@@H](Cc2cccc(C(F)(F)F)c2)NCCOc2ccccc2C[C@H](C)CNC(=O)[C@H](CNC(=N)N)NC1=O [compound 201]
Ki (human motilin receptor): 0.001 to 0.1 µM

CCC(C)[C@@H]1NC[C@H](C)Oc2ccccc2CCCNC(=O)[C@@H](Cc2ccccc2)NC(=O)[C@@H](C)N(C)C1=O (stereo partly drawn) [compound 243]
Ki [1]: 0.001 to 0.1 µM

CC(C)[C@H]1NC(=O)[C@@H](Cc2cccc(F)c2)NCCOc2ccccc2C[C@@H](C)CNC(=O)[C@H](CN(C)C)NC1=O [compound 205]
Ki (human motilin receptor): 0.1 to 1 µM

CC1CNC(=O)C(Cc2ccc(F)cc2)NC(=O)C(C)N(C)C(=O)C(C2CC2)NCCOc2ccccc2C1 (stereo not drawn) [compound 248]
Ki [1]: 0.1 to 1 µM
